Counter-ions that a name gives are not always drawn. Like-named read-outs stand apart in the source and are kept apart here.
How the values were obtained:
[1] = system: primary human pan T cells; test: Human T-cell IL2 induction assay; format: cell-based
Experimental: Assay Principle: Anti-CD3 and anti-CD28 activates TCR signaling in primary human pan T cells leading to IL-2 promoter induction. Secreted IL-2 in cell culture supernatant is detected by electrochemiluminescence using a capture antibody against IL-2 and an anti-IL-2 antibody labeled with SULFO-tag. Also see www.mesoscale.com for additional electrochemiluminescence technology information.
Assay Procedure: Incubate primary human pan T cells with varying concentrations of test compounds for 30 minutes in a humidified incubator at 37° C. and 5% CO2. Transfer cells to a plate pre-coated with a fixed concentration of anti-human CD3 (determined separately for each donor lot) and add soluble anti-human CD28 (final concentration=1 μg/ml). Stimulate cells in a humidified incubator at 37° C. and 5% CO2 for 4 hours. Transfer 25 μl of supernatant to a MSD single spot plate pre-coated with an anti-human IL-2 antibody. Incubate MSD plate overnight at 4° C. with gentle shaking. Wash MSD plate 4× with wash buffer. Add SULFO-tagged detection antibody at a 1:50 dilution and incubate at room temperature shaking for 2 hours. Wash MSD plate 4× with wash buffer and add 150 μl 2×MSD read buffer. Read on an MSD instrument. Normalize data to stimulated/untreated controls to calculate % activity at each concentration of compound.
Instrumentation: • Biomek FX for liquid handling (Beckman Coulter) • MSD SECTOR S 600 (Meso Scale Discovery)
Exemplary compounds of Formula (I) were tested in the human T-cell IL-2 induction assays.

[2] = molecular target: HPK full length, T165E S171E (Homo sapiens (Human), UniProt Q92918, S171E/T165E); test: HPK1-FL HTRF enzymatic assay ("HTRF"); format: biochemical; conditions: ATP 1 mM, read-out: HPK1 Ki
Summary of the method: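 HTRF detection of phosphorylated biotin-SLP-76 used Eu-anti-pSLP76 antibody and SA-XL665, read after 60 min. The kinase reaction ran 60 min at […], following a 30-min compound preincubation with the full-length enzyme.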

[3] = Permeability assay in gMDCKI cells; format: in vitro ADME, canine; conditions: dog, MDCK, apical-to-basolateral, 2-hour incubation, read-out: MDCK AB Papp
Experimental: Cell permeability of compounds of interest was assessed in the gMDCKI cell line, which is a modified MDCKI (Madin-Darby canine kidney) originally acquired from American Type Culture Collection (Manassa, Va.) and generated at Genentech. […] Test article was tested at 10 μM in the apical-to-basolateral (A-B) and basolateral-to-apical (B-A) directions. Test compound was dissolved in transport buffer consisting of Hank's balanced salt solution and […] (Invitrogen Corporation, Grand Island, N.Y.). Transepithelial electrical resistance (TEER) and lucifer yellow (LY) permeability were used to monitor monolayer integrity at the beginning and the end of the experiments, respectively. Test articles were analyzed by LC-MS/MS.
The efflux ratio (ER) is calculated as (Papp, B−A/Papp, A−B).
Cell permeability were assessed for exemplary compounds of Formula (I).

[4] = Pharmacokinetic study in rat; format: in vivo, Sprague Dawley rat; conditions: male, Sprague Dawley, in vivo, PO 2 mg/kg, 10% DMSO/60% PEG400/30% Water, Solution
Experimental: Pharmacokinetic Study in Rat: Male Sprague Dawley rats obtained from Lingchang/Vital River Laboratory Animal Technology Co., Ltd., (Shanghai/Beijing, P.R. China) with body weight ranging between 200 g to 300 g were use in the PK studies. Group of 3 rats were given a 1 mg/kg intravenous bolus (IV) dose of the test article in solution formulation, and another group of 3 rats were given a 2 or 5 mg/kg oral (PO) dose of test article as a 0.5% methylcellulose with 0.2% Tween 80 (MCT) suspension or as a solution. Blood samples (250 μL, per time point) were collected serially via the catheter in femoral artery at 0.033, 0.083, 0.25, 0.5, 1, 2, 4, 6, and 8 hours after IV or PO administration from each of the rat. Blood samples were collected into pre-chilled tubes containing Potassium (K2) EDTA and centrifuged at 3,200 g for 10 minutes at 2 to 8° C. within 1 hour of collection to harvest plasma. Plasma samples were stored at −70° C. until LC/MS/MS analysis. Concentration in each plasma sample was determined by a non-validated LC/MS/MS. Data is acquired using multiple reaction monitoring (MRM) with specific transitions monitored for each compound.
Following PO administration, percent bioavailability (% F) was determined for each animal by dividing the dose normalized area under the plasma concentration-time curve, extrapolated to infinity (AUCinf) obtained following each PO dose by the mean dose normalized AUCinf of the animals dosed by IV injection. All PK parameters are presented as mean±standard deviation (SD).
Pharmacokinetic studies were conducted in rat for exemplary compounds of Formula (I).

[5] = system: phosphorylation of SLP-76 (S376) by HPK-1 in human Jurkat cells; test: pSLP76 assay (sandwich ELISA, anti-CD3 stimulated Jurkat cells); format: cell-based; conditions: Homo sapiens; Jurkat cells, anti-CD3 stimulation; read-out: pSLP76 IC50
Experimental: Phospho-SLP76 (S376) is detected by sandwich ELISA using an anti-pSLP76(S376) capture antibody and a biotinylated anti-SLP76 detection antibody.
Incubate Jurkat cells with varying concentrations of test compounds for 30 minutes in a humidified incubator at 37° C. and 5% CO2. Add anti-CD3 DynaBeads at a 4:1 bead:cell ratio. Stimulate cells in a humidified incubator at 37° C. and 5% CO2 for 10 minutes. Add cold lysis buffer and incubate on a shaker at 4° C. for 30 minutes. Transfer cell lysates to a pre-blocked ELISA plate coated with capture antibody. Incubate at room temperature shaking for 2 hours. Wash ELISA plate 5× with wash buffer and add 25 μl of biotinylated detection antibody at a final concentration of 0.5 μg/ml. Incubate at room temperature shaking for 1 hour. Wash ELISA plate 5× with wash buffer and add 25 μl of streptavidin enzyme conjugate at a final dilution of 1:8000. Incubate at room temperature shaking for 20 minutes. Wash ELISA plate 5× with wash buffer and add 25 μl of TMB substrate solution. Incubate at room temperature in the dark shaking for 20 minutes. Add 25 μl of STOP solution and read on SoftMax Pro for absorbance at 450 nm.
Exemplary compounds of Formula (I) were tested in pSLP76 assays.

[6] = Hepatocyte stability assay; format: in vitro ADME; conditions: cryopreserved human hepatocytes (10 donor pool, suspension), scaled hepatic clearance, read-out: HHep Clearance
Experimental: Metabolic stability of compounds are assessed using a hepatocyte stability assay. Cryopreserved human hepatocytes from a 10 donor pool are quickly thawed at 37° C., suspended in prewarmed In VitroGRO™ HT Medium, and then centrifuged at 100×g at room temperature for 10 min. The supernatants are discarded, and cells are resuspended in 5 mL Dulbecco's Modified Eagle Medium (DMEM) medium. Cell viability in suspension is counted on a Hepatometer® Vision (Lonza, N.C.), and viable cells are then adjusted to […] in DMEM. Compounds are first diluted to 2 μM with DMEM medium, and then aliquots of 125 μL of drug-containing medium are transferred to 96-well non-coated plates. Incubation is initiated by the addition of 125 μL of hepatocyte suspension to yield a total incubation volume of 250 μL. Final concentration of each compound is 1 μM, and final cell density is 0.5×10^6 cells/mL. Incubations are conducted in a humidified incubator at 37° C. Aliquots of 50 μL incubation medium are taken out at different time intervals (0, 60, 120 and 180 min), and immediately mixed with 100 μL of ice-cold acetonitrile containing 50 nM propranolol (internal standard). Samples are then centrifuged at 10,000×g for 10 min, and 80 μL of supernatant is taken out and diluted with 160 μL of water prior to LC/MS-MS analysis.
Human hepatocyte stability was assessed for exemplary compounds of Formula (I) according to the above procedures.

HPK full length, T165E S171E, sequence (Q92918 whole entry T165E/S171E, looked up): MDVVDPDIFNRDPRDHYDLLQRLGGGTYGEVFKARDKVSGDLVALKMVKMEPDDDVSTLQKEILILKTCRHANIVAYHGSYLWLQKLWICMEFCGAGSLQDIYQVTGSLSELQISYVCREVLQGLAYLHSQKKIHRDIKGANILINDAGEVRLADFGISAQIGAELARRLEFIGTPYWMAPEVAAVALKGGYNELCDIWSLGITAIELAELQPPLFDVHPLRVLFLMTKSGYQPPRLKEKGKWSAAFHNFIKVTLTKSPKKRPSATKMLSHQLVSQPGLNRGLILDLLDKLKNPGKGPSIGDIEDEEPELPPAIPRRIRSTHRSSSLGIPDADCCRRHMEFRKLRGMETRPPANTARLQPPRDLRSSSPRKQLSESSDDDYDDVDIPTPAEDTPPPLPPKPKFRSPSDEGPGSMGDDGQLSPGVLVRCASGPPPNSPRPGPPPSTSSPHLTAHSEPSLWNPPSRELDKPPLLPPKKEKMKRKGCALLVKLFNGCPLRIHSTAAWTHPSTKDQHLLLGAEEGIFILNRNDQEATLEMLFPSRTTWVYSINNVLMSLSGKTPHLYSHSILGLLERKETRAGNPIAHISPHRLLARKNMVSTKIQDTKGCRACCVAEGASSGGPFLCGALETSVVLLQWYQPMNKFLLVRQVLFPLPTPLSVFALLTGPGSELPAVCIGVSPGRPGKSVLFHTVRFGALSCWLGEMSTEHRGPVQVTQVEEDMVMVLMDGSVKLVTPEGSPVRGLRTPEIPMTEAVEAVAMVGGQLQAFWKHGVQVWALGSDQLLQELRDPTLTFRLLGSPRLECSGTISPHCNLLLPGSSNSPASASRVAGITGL

| Structure (SMILES) | % IL-2 increase relative to untreated cells ([1]; assayed concentration 2.778 μM) | Ki [2] | other results |
| --- | --- | --- | --- |
| Cc1c(-c2cc3cc(NC(=O)O[C@H]4CCN(C)C4)ncc3c(N)c2F)cnc2c1NCCO2 [Compound 411a, (S)-1-Methylpyrrolidin-3-yl (8-amino-7-fluoro-6-(8-methyl-2,3-dihydro-1H-pyrido[2,3-b][1,4]oxazin-7-yl)isoquinolin-3-yl)carbamate] | 2119% | 0.25 nM |  |
| Cc1c(-c2cc3cc(NC(=O)O[C@H]4COC[C@@H]4F)ncc3c(N)c2F)cnc2c1NCCO2 (single isomer, unassigned) [Compound 477b] |  | 0.017 nM | % IL-2 increase relative to untreated cells ([1]; assayed concentration 5.469 μM): 1494% |
| Cc1c(-c2cc3cc(NC(=O)N[C@H]4CCC[C@H]4F)ncc3c(N)c2F)cnc2c1NCCO2 [Compound 727b, 1-[8-Amino-7-fluoro-6-(8-methyl-2,3-dihydro-1H-pyrido[2,3-b][1,4]oxazin-7-yl)-3-isoquinolyl]-3-[(1S,2R)-2-fluorocyclopentyl]urea] |  | < 0.013 nM | % IL-2 increase relative to untreated cells ([1]; assayed concentration 0.926 μM): 938% |
| Cc1c(-c2cc3cc(NC(=O)O[C@H]4CCC[C@@H]4C#N)ncc3c(N)c2F)cnc2c1NCCO2 (single isomer, unassigned) [Compound 482b] | 1719% | < 0.013 nM |  |
| Cc1c(-c2cc3cc(NC(=O)O[C@@H]4CCC(=O)N(C)C4)ncc3c(N)c2F)cnc2c1NCCO2 [Compound 409b, (R)-1-Methyl-6-oxopiperidin-3-yl (8-amino-7-fluoro-6-(8-methyl-2,3-dihydro-1H-pyrido[2,3-b][1,4]oxazin-7-yl)isoquinolin-3-yl)carbamate] | 2838% | 0.048 nM |  |
| Cc1c(-c2cc3cc(NC(=O)O[C@@H]4CCCN(C)C4)ncc3c(N)c2F)cnc2c1NCCO2 [Compound 416a, (R)-1-Methylpiperidin-3-yl (8-amino-7-fluoro-6-(8-methyl-2,3-dihydro-1H-pyrido[2,3-b][1,4]oxazin-7-yl)isoquinolin-3-yl)carbamate] | 2989% | 0.075 nM |  |
| Cc1c(-c2cc3cc(NC(=O)O[C@H]4C[C@](C)(O)[C@@H]4C)ncc3c(N)c2F)cnc2c1NCCO2 [Compound 526c, (1S,2R,3S)-3-Hydroxy-2,3-dimethylcyclobutyl (8-amino-7-fluoro-6-(8-methyl-2,3-dihydro-1H-pyrido[2,3-b][1,4]oxazin-7-yl)isoquinolin-3-yl)carbamate] | 1677% | 0.015 nM |  |
| CC[C@]1(O)C[C@H](OC(=O)Nc2cc3cc(-c4cnc5c(c4C)NCCO5)c(F)c(N)c3cn2)C1 [Compound 512b, (1r,3s)-3-Ethyl-3-hydroxycyclobutyl (8-amino-7-fluoro-6-(8-methyl-2,3-dihydro-1H-pyrido[2,3-b][1,4]oxazin-7-yl)isoquinolin-3-yl)carbamate hydrochloride] | 2613% |  | Ki ([2]; hydrochloride): < 0.013 nM |
| Cc1c(-c2cc3cc(NC(=O)O[C@H]4CC[C@@H]4C#N)ncc3c(N)c2F)cnc2c1NCCO2 [Compound 535a, (1S,2R)-2-Cyanocyclobutyl (8-amino-7-fluoro-6-(8-methyl-2,3-dihydro-1H-pyrido[2,3-b][1,4]oxazin-7-yl)isoquinolin-3-yl)carbamate] | 831% | < 0.013 nM |  |
| Cc1c(-c2cc3cc(NC(=O)NC4CCOCC4)ncc3c(N)c2F)cnc2c1NCCO2 [Compound 701, 1-(8-Amino-7-fluoro-6-(8-methyl-2,3-dihydro-1H-pyrido[2,3-b][1,4]oxazin-7-yl)isoquinolin-3-yl)-3-(tetrahydro-2H-pyran-4-yl)urea] | 4163% | < 0.013 nM |  |
| Cc1c(-c2cc3cc(NC(=O)O[C@H]4C[C@H](N5CCOCC5)C4)ncc3c(N)c2F)cnc2c1NCCO2 [Compound 550a, (1r,3r)-3-Morpholinocyclobutyl (8-amino-7-fluoro-6-(8-methyl-2,3-dihydro-1H-pyrido[2,3-b][1,4]oxazin-7-yl)isoquinolin-3-yl)carbamate] | 1059% | < 0.013 nM |  |
| CCc1c(-c2cc3cc(NC(=O)O[C@@H]4COC[C@H]4C)ncc3c(N)c2F)cnc2c1NCCO2.Cl (single isomer, unassigned) [Compound 555b, (3S,4R)-4-Methyltetrahydrofuran-3-yl (8-amino-6-(8-ethyl-2,3-dihydro-1H-pyrido[2,3-b][1,4]oxazin-7-yl)-7-fluoroisoquinolin-3-yl)carbamate hydrochloride] |  |  | Papp at 2 h, 10 μM [3]: 15 ×10⁻⁶ cm/s; bioavailability [4]: 34% |
| CCc1c(-c2cc3cc(NC(=O)O[C@@H]4COC[C@H]4C)ncc3c(N)c2F)cnc2c1NCCO2.Cl (single isomer, unassigned) [Compound 555b, hydrochloride] |  | < 0.013 nM | IC50 [5]: 24 nM; CLhep predicted at 1 μM [6]: 13 mL/min/kg |
